# Source: patent publication US4695545A, “Culture and process for producing A41030 antibiotics” (Eli Lilly and Company, priority 1984, dated 1987)
# Assays:
# Bacteroides fragilis = experiment: MIC anaerobic bacteria, agar-dilution; format: cell-based
# [1] = test system: Bacteroides thetaiotaomicron; experiment: MIC anaerobic bacteria, agar-dilution; format: cell-based; settings: Bacteroides thetaiotaomicron 1438
# S. pneumoniae = experiment: Experimental bacterial infection in mice, subcutaneous ED50; format: in vivo; settings: two doses subcutaneously
# Experimental: (§1) All of the A41030 factors tested have shown in vivo antimicrobial activity against experimental bacterial infections. When two doses of test compound were administered subcutaneously to mice in illustrative infections, the activity observed is measured as an ED50 value [effective dose in mg./kg. to protect fifty percent of the test animals: See Warren Wick, et al., J. Bacteriol. 81, 233-235 (1961)].
# S. pyogenes = experiment: as above; format: in vivo; settings: two doses subcutaneously
# Experimental: as §1
# Staph. aureus = experiment: as above; format: in vivo; settings: two doses subcutaneously
# Experimental: as §1
substance,measurement,setting,value
A41030 factor B,MIC,Bacteroides fragilis; Bacteroides fragilis 111,64 µg/mL
same,MIC,Bacteroides fragilis; Bacteroides fragilis 1877,32 µg/mL
same,MIC,Bacteroides fragilis; Bacteroides fragilis 1936B,32 µg/mL
same,MIC,[1],32 µg/mL
same,ED50,S. pneumoniae,1.4 mg/kg
same,ED50,S. pyogenes,1.4 mg/kg
same,ED50,Staph. aureus,< 0.43 mg/kg
